Test results published in ChEMBL document CHEMBL1201862, “PubChem BioAssay data set” (2004).
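Dose response: 5 concentrations. Exposure: 48 h. Format: 96-well plates. Endpoint: linear interpolation; highest concentration if not reached. GI50 marks 50% less growth.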 Active and inactive are the calls of the source. Cut-off read from the data, not from the text of the source: active = GI50 up to about 1.1 µM and inactive = higher.

Columns and labels:
Assay in all cases: NCI anticancer screen, dose series, 48 h
[1] = system: 786-0
[2] = system: A498
[3] = system: A549
[4] = system: ACHN
[5] = system: BT-549
[6] = system: CAKI-1
[7] = system: CCRF-CEM
[8] = system: COLO 205
[9] = system: DU-145
[10] = system: EKVX
[11] = system: HCC 2998
[12] = system: HCT-116
[13] = system: HCT-15
[14] = system: HL-60
[15] = system: HOP-62
[16] = system: HOP-92
[17] = system: HT-29
[18] = system: Hs-578T
[19] = system: IGROV-1
[20] = system: K562
[21] = system: KM12
[22] = system: LOX IMVI
[23] = system: M14
[24] = system: MCF7
[25] = system: MDA-MB-231
[26] = system: MDA-MB-435
[27] = system: MOLT-4
[28] = system: NCI-H226
[29] = system: NCI-H23
[30] = system: NCI-H460
[31] = system: NCI-H522
[32] = system: NCI/ADR-RES
[33] = system: OVCAR-3
[34] = system: OVCAR-4
[35] = system: OVCAR-5
[36] = system: OVCAR-8
[37] = system: PC-3
[38] = system: RPMI-8226
[39] = system: RXF 393
[40] = system: SF-268
[41] = system: SF-295
[42] = system: SF-539
[43] = system: SK-MEL-28
[44] = system: SK-MEL-2
[45] = system: SK-MEL-5
[46] = system: SK-OV-3
[47] = system: SNB-19
[48] = system: SR
[49] = system: SW-620
[50] = system: T47D
[51] = system: TK-10
[52] = system: U-251
[53] = system: UACC-257
[54] = system: UACC-62
[55] = system: UO-31
[56] = system: Malme-3M
[57] = system: SN12C

Measured: GI50

O=S(=O)(Oc1ccc2oc3ccccc3c2c1-c1c(OS(=O)(=O)C(F)(F)F)ccc2oc3ccccc3c12)C(F)(F)F
> 100 µM: [13]
inactive: [1] > 100 µM | [2] > 100 µM | [3] > 100 µM | [4] > 100 µM | [5] > 100 µM | [6] > 100 µM | [7] > 100 µM | [8] > 92.3 µM | [9] > 100 µM | [10] > 100 µM | [11] > 100 µM | [12] > 100 µM | [14] 8.28 µM | [15] > 100 µM | [16] > 100 µM | [17] > 100 µM | [18] > 100 µM | [19] > 100 µM | [20] > 100 µM | [21] > 100 µM | [22] > 100 µM | [23] > 100 µM | [24] > 100 µM | [25] > 100 µM | [26] > 100 µM | [27] > 100 µM | [28] > 100 µM | [29] > 100 µM | [30] > 100 µM | [31] > 100 µM | [32] > 100 µM | [33] > 100 µM | [34] > 100 µM | [35] > 100 µM | [36] > 100 µM | [37] > 100 µM | [38] > 100 µM | [39] > 100 µM | [40] > 100 µM | [41] > 100 µM | [42] > 100 µM | [43] > 100 µM | [44] > 100 µM | [45] > 100 µM | [46] > 100 µM | [47] > 100 µM | [48] > 100 µM | [49] > 100 µM | [50] > 100 µM | [51] > 100 µM | [52] > 100 µM | [53] > 100 µM | [54] > 100 µM | [55] > 100 µM

COc1ccc(C(=O)c2sc(Nc3ccccc3)nc2N)cc1
3.84 µM: [13]
active: [48] 0.778 µM
inactive: [1] 13.1 µM | [2] > 100 µM | [3] 24.2 µM | [4] > 100 µM | [5] > 100 µM | [7] 1.17 µM | [9] > 68.9 µM | [10] 60.5 µM | [11] > 100 µM | [14] 2.2 µM | [15] 21 µM | [16] 50.1 µM | [17] > 100 µM | [18] 23.3 µM | [19] 14.3 µM | [20] 2.25 µM | [22] > 100 µM | [23] > 100 µM | [24] 4.9 µM | [25] > 75.7 µM | [26] 1.36 µM | [27] 2.16 µM | [56] > 100 µM | [28] > 100 µM | [29] > 100 µM | [30] > 100 µM | [31] 6.82 µM | [32] > 100 µM | [33] > 26.9 µM | [34] 10.7 µM | [35] > 100 µM | [36] 29 µM | [37] > 72.8 µM | [38] 3.72 µM | [39] 13.4 µM | [40] 28.4 µM | [41] 32.4 µM | [42] 14.3 µM | [43] > 100 µM | [44] 4.88 µM | [45] > 100 µM | [46] 26.9 µM | [57] > 60.5 µM | [47] 22.7 µM | [49] 2.69 µM | [50] > 100 µM | [51] > 55.7 µM | [52] 12.7 µM | [53] > 100 µM | [54] > 100 µM | [55] 55.8 µM
